From patent US20100130444A1, “COMPLEXES OF PROSTAGLANDIN DERIVATIVES AND MONOSUBSTITUTED, CHARGED BETA-CYCLODEXTRINS” (priority 2007, published 2010) come the findings set out here.

≈ marks a conversion by molar mass, not a printed value.

Type in all cases: physicochemical
Series [1] in a line: Solubility of prostaglandin derivatives in 50 mM cyclodextrin derivative or water (Example 2). The source says:
Solubility of Latanoprost, Bimatoprost And Travoprost in 50 Mm Mono-6-desoxy-6-diaminopropyl-β-cyclodextrin, Mono-6-desoxy-6-aminopropanol-β-cyclodextrin or Water

The nature of series [2]: Solubilization of latanoprost by a library of cyclodextrin derivatives (Example 1). The following applies: ultra-pure water, room temperature. As for the experimental part:
A library of unsubstituted and monosubstituted cyclodextrins was screened to identify those cyclodextrin derivatives that have the highest capacity for solubilization of latanoprost. Complexation was carried out in ultra-pure water at a molar ratio of cyclodextrin derivative to latanoprost of 5:1, corresponding to concentrations of 115.58 mM and 23.12 mM for cyclodextrin derivative and latanoprost, respectively. Because of the known sensitivity of latanoprost to light, high temperature and oxidation, experiments were conducted in the dark and under a nitrogen atmosphere at room temperature. […] Non-covalent complexes formed contained the cyclodextrin derivative and latanoprost at a molar ratio of 5:1.

Series [3] can be described thus: 30-day stability of latanoprost complexed with mono-6-desoxy-6-diaminopropyl-β-cyclodextrin, HPLC-ELSD (Example 6, Table 4). The following applies: for Relative area of Latanoprost (%) after 30 days: ELSD. As for the experimental part:
Latanoprost-mono-6-desoxy-6-diaminopropyl-β-cyclodextrin complex was prepared essentially as described under the previous example. Complex was dissolved in water to yield solutions (pH 6.7) containing 15 mg/ml and 7.5 mg/ml of latanoprost, respectively, or in a standard, isotonic phosphate buffer (pH 6.7) at 50 μg/ml. A control solution of 50 μg/ml latanoprost in phosphate buffer was also prepared. One-milliliter amounts of these solutions were transferred to pre-scored hermetically thermo-sealed ampoules, and the sealed ampoules were incubated at room temperature, at 37° C. or at 60° C., in the presence or absence of natural light, for a total of 30 days. Aliquots were removed periodically and were analyzed by HPLC using either a UV diode array detector (at 210 nm) or an evaporative light scattering detector (ELSD). […] Such instability had been observed previously. Morgan (2001) J. Glaucoma 10, 401-405; Yusuke Sakai (2005) Int. J. Pharmaceutics 305, 176-179. International patent publication WO 2004/024164.

Series [4] in a line: Time to reach maximal solubility of latanoprost in cyclodextrin solution (Example 3). The following applies: 115 mM mono-6-desoxy-6-diaminopropyl-β-cyclodextrin, room temperature, dark, stirred. Here is the method:
The minimal time period required for reaching maximal solubility of the guest molecule, i.e., latanoprost, in a solution containing 115 mM mono-6-desoxy-6-diaminopropyl-β-cyclodextrin was determined. Subsequent to addition of latanoprost, the resulting suspension was ultrasonicated for 5 min and then stirred magnetically at room temperature and in the dark for a period of 48 hours. Aliquots were removed at 0, 1, 3, 6, 12, 24 and 48 hours. Each aliquot was filtered through a 0.45 um PVDF (Millipore/Whatman) membrane, and the filtrate was diluted for quantitative analysis of latanoprost by HPLC. […] Subsequent experiments were conducted after 24 hours of equilibration.

Series [5] in a line: 30-day stability of latanoprost complexed with mono-6-desoxy-6-aminopropanol-β-cyclodextrin, quantitative HPLC (Example 6, Table 5). Conditions: for Degradation products of latanoprost at 30 days (% of sum of drug and deg. prod.): uncomplexed aqueous solution. Here is the method: Analogous experiments were carried out to estimate the stability of latanoprost-mono-6-desoxy-6-aminopropanol-β-cyclodextrin complex.

Setting [6] is: 50 mM mono-6-desoxy-6-aminopropanol-β-cyclodextrin solution, aqueous with cosolvent or surfactant or cyclodextrin, read-out: Solubility In 50 mM Mono-6-desoxy-6-aminopropanol-β-cyclodextrin.
The mark [7] stands for this setting: 50 mM mono-6-desoxy-6-diaminopropyl-β-cyclodextrin solution, aqueous with cosolvent or surfactant or cyclodextrin, read-out: Solubility In 50 mM Mono-6-desoxy-6-diaminopropyl-β-cyclodextrin.
Setting [8] is: water, read-out: Solubility In Water.
Setting [9] is: dark, nitrogen, cyclodextrin derivative 115.58 mM : latanoprost 23.12 mM (5:1), 'No addition' = latanoprost alone (Exp. S0).

As to `CC(C)OC(=O)CCC/C=C\C[C@@H]1[C@@H](/C=C/[C@@H](O)COc2cccc(C(F)(F)F)c2)[C@H](O)C[C@@H]1O` [Travoprost, 16-(3-trifluoromethylphenoxy)-17,18,19,20-tetranor-PGF2α-isopropylester], the solubility – broadly, how much of the substance goes into solution per volume – in series [1] (setting [6]) turned out to be 4950 ± 20 µg/mL (≈ 9.89 mM); in series [1] (setting [7]) it was 4940 ± 130 µg/mL (≈ 9.87 mM); in series [1] (setting [8]), 32 µg/mL (≈ 0.0639 mM).
“3^1,6^1-anhydrocyclomaltoheptaose [Monoanhydro-β-cyclodextrin]”: in series [2], the “Mass Ratio Cyclodextrin:Latanoprost in Complex” value came out at 65 and the “Molar Ratio Cyclodextrin:Latanoprost in Complex” value was determined as 25. Also, the “Maximal Solubility of Latanoprost” value in series [2] (setting [9]) came to 2000 µg/mL.
For “6^1-(3-amino-propylamino)-6^1-deoxycyclomaltoheptaose” the same measures were 14, 5 and 9570 µg/mL.
With `OC[C@H]1O[C@@H]2O[C@H]3[C@H](O)[C@@H](O)[C@@H](O[C@H]4[C@H](O)[C@@H](O)[C@@H](O[C@H]5[C@H](O)[C@@H](O)[C@@H](O[C@H]6[C@H](O)[C@@H](O)[C@@H](O[C@H]7[C@H](O)[C@@H](O)[C@@H](O[C@H]8[C@H](O)[C@@H](O)[C@@H](O[C@H]1[C@H](O)[C@H]2O)O[C@@H]8CO)O[C@@H]7CO)O[C@@H]6CO)O[C@@H]5CO)O[C@@H]4CO)O[C@@H]3CO` [β-Cyclodextrin, β-cyclomaltoheptaose], the “Mass Ratio Cyclodextrin:Latanoprost in Complex” value in series [2] worked out at 59. Moreover, the “Maximal Solubility of Latanoprost” value in series [2] (setting [9]) was determined as 255 µg/mL.
As to `CCNC(=O)CCC/C=C\C[C@@H]1[C@@H](/C=C/[C@@H](O)CCc2ccccc2)[C@H](O)C[C@@H]1O` [Bimatoprost, 17-phenyl-18,19,20-trinor-PGF2α-ethylamide], the solubility in series [1] (setting [6]) was found to be 10770 ± 50 µg/mL (≈ 25.9 mM); in series [1] (setting [7]) it was 10700 ± 670 µg/mL (≈ 25.7 mM); in series [1] (setting [8]), 3020 µg/mL (≈ 7.26 mM).
For the molecule “6^1-(methylthioureido-6^1-deoxycyclomaltoheptaose”, in series [2], the “Mass Ratio Cyclodextrin:Latanoprost in Complex” value worked out at 106 and the “Molar Ratio Cyclodextrin:Latanoprost in Complex” value was determined as 38. The “Maximal Solubility of Latanoprost” value in series [2] (setting [9]) was determined as 1300 µg/mL.
The like results for “6^1-(3-hydroxy-propylamino)-6^1-deoxycyclomaltoheptaose” were, in that order, 14, 5 and 10200 µg/mL.
For `CC(C)OC(=O)CCC/C=C\C[C@@H]1C(CC[C@@H](O)CCc2ccccc2)[C@H](O)C[C@@H]1O` (stereo partly drawn) [Latanoprost, 13,14-dihydro-17-phenyl-18,19,20-trinor-PGF2α-isopropylester], the solubility was 5720 ± 80 µg/mL (≈ 13.2 mM) in series [1] (setting [6]); 5900 ± 60 µg/mL (≈ 13.6 mM) in series [1] (setting [7]); 89 µg/mL (≈ 0.206 mM) in series [1] (setting [8]); 45 µg/mL (≈ 0.104 mM) in series [2] (dark, nitrogen, cyclodextrin derivative 115.58 mM : latanoprost 23.12 mM (5:1), 'No addition' = latanoprost alone (Exp. S0), read-out: Maximal Solubility of Latanoprost). Also, the “Relative area of Latanoprost (%) after 30 days” value in series [3] (25 °C, Dark) came out at 85.9%; in series [3] (25 °C, Light, intact latanoprost as % of sum of latanoprost and degradation product), 76.9%; in series [3] (37 °C, Dark), 100%; in series [3] (37 °C, Light) it was 99.8%; in series [3] (60 °C, Dark) it was 98.5%; in series [3] (60 °C, Light), 94.7%. The “stability over 30 days (in words)” value in series [3] (room temperature, 37° C. or 60° C., light or dark, 30 days) is “exhibited instability, in particular at 25 °C”. For the same molecule, in series [4], the “time at which solubility equilibrium was reached” value is reported as “about 24 hours”. In addition, the “degradation at 25° C. (in words)” value in series [5] (25° C., 30 days) is “abundant degradation”. In addition, the “Degradation products of latanoprost at 30 days (% of sum of drug and deg. prod.)” value was 93.4% in series [5] (25 °C, Dark); 77.9% in series [5] (25 °C, Light); 0% in series [5] (37 °C, Dark); 0% in series [5] (37 °C, Light); 0% in series [5] (60 °C, Dark); 0% in series [5] (60 °C, Light). Besides, the “latanoprost in aqueous solution at 30 days” value in series [5] (uncomplexed, 25 °C, Dark) is recorded as 0.002 +/− 0.001 g/lt; in series [5] (uncomplexed, 25 °C, Light), 0.006 +/− 0.004 g/lt; in series [5] (uncomplexed, 37 °C, Dark) it was 0.051 +/− 0.001 g/lt; in series [5] (uncomplexed, 37 °C, Light), 0.061 +/− 0.003 g/lt; in series [5] (uncomplexed, 60 °C, Dark), 0.058 +/− 0.002 g/lt; in series [5] (uncomplexed, 60 °C, Light), 0.043 +/− 0.007 g/lt. Also, the “latanoprost in aqueous solution at day 0” value in series [5] (uncomplexed, phosphate-citrate buffer pH 5.0) is reported as 0.063 +/− 0.003 g/lt.
